Data: patent US5523321A, “Prostacyclins, their analogs or prostaglandins and thromboxane antagonists for treatment of thrombotic and thromboembolic syndromes” (Schering Aktiengeselleschaft, priority 1985, dated 1996)
Read-outs that look alike come from different tables or passages of the source.

Experiments:
[1] = tested on: 2nd wave of aggregation induced by ADP (human PRP); experiment: Thrombocyte function in vitro: 2nd wave of aggregation by ADP (human PRP); format: cell-based; conditions: for % Inhibition (2nd wave of aggregation): 0.5×10^-6 M ADP; for IC50: human PRP, stimulant ADP
Method: (§1) 1. Thrombocyte Function In Vitro (Human PRP)
(§2) BM 13 177 (in the text, BM) and Iloprost are tested in their action on thrombocyte aggregation and thrombocyte shape change against stimulants U 46 619 (9,11-dideoxy,9alpha-11alpha-methanoepoxy PGF2alpha, stable TXA2 agonist) and ADP and the IC50 values are determined. Then in several independent tests the action of a combination of the two substances on the aggregation (U 46 619 and ADP) in various concentrations is tested; especially the combination of low dosages and of dosages of the two substances in the range of the IC50 values is tested.
(§3) Platelet aggregation and shape change are measured as light-optical phenomena in stimulated PRP (platelet rich plasma) samples. In this case, the shape change is detected as the density increase of the sample by transition of the discoid rest shape of the platelet into a spherozytic shape with formation of pseudopodlike membrane formations and represented on a recorder. The aggregation is photometrically detected as density […] by clumping and "precipitation" of platelet aggregates and represented on a recorder.
Example 3: 2nd wave of aggregation by 0.5×10^-6 M ADP

[2] = tested on: mesenteric arteriole thrombosis (topical ADP); experiment: Mesenteric arteriole thrombosis on anesthetized guinea pigs; format: in vivo
Method: 3. Mesenteric Arteriole Thrombosis on Anesthetized Guinea Pigs
A mesenteric loop for vital microscopy is prepared on anesthetized guinea pigs. After electrical lesion of an arteriole, under controlled conditions and after substance application, ADP is applied topically until finding of a thrombogenic dose (occlusion by platelet thrombus).
Parameters: increasing of the thrombogenic ADP concentration vs. initial value; i.v. infusion of Iloprost, i.v. injection of BM 13 177.

jugular vein thrombosis = experiment: Jugular vein thrombosis on anesthetized rats; format: in vivo
Method: 4. Jugular Vein Thrombosis on Anesthetized Rats
By stressing of the jugular vein of rats anesthetized with urethane with a metal punch cooled to -15° C. (200 g, 2 min) the vessel is predamaged. The thrombus grown within 3 hours on this site is quantified (Hb content wet weight) by determinations of its Hb content (difference damaged-undamaged vessel segment).
The infusion of the test substances begins 15 min before damaging the vein and is continued until the end of the test.

[3] = tested on: platelet aggregation induced by U 46 619 (human PRP); experiment: Thrombocyte function in vitro: aggregation by U 46 619 (human PRP); format: cell-based
Method: as §1, §2, §3

[4] = tested on: platelet shape change induced by U 46 619 (human PRP); experiment: Thrombocyte function in vitro: shape change by U 46 619 (human PRP); format: cell-based; conditions: for IC50: human PRP, stimulant U 46 619
Method: as §1, §2, §3
Example 2: Shape change by 50 ng/ml U 46 619

[5] = tested on: intravascular thrombocyte aggregation (collagen-induced thrombocytopenia); experiment: Intravascular thrombocyte aggregation on anesthetized rats (collagen-induced thrombocytopenia); format: in vivo
Excerpt: 2. Intravascular Thrombocyte Aggregation on Anesthetized Rats
The influence of the intravascular thrombocyte aggregation is examined on urethane anesthetized rats.
Collagen (100 micrograms/kg i.v. bolus) causes transitory thrombocytopenias (a transient loss of blood platelet concentration), measured by continuous taking of blood from the A. carotis (50 microliter/min) and thrombocyte counting in the Technicon Autocounter. The change of the collagen-induced thrombocytopenia (% of loss) in comparison with the initial value (=2nd collagen injection) serves as a measurement for the inhibition of the intravascular platelet aggregation.

[6] = Blood pressure of spontaneously hypertonic (SH) rats; conditions: Iloprost 0.3 microgram/kg/min (threshold dose), awake SH rats

O=C(O)COc1ccc(CCNS(=O)(=O)c2ccccc2)cc1 [BM 13 177, 4-[2-(benzenesulfonamido)-ethyl]-phenoxyacetic acid]
% Inhibition (2nd wave of aggregation) ([1]; 0.165 microM BM 13 177): no inhibition | IC50 ([1]; BM 13 177): 330 to 660 nM | increase of thrombogenic ADP concentration (factor) ([2]; BM 13 177 25 mg/kg i.v., significant): ~4 | antithrombotic effect, Hb content of thrombi (in words) (jugular vein thrombosis; BM 13 177 20 mg/kg i.v. bolus + 50 micrograms/kg/min i.v., monotherapy): ineffective | antithrombotic effect (in words) (jugular vein thrombosis; BM 13 177 as monotherapy): not antithrombotically effective | IC50 ([3]; BM 13 177, human PRP, stimulant U 46 619, read-out: IC50 for the aggregation): 1650 to 6600 nM | inhibition at 0.66 µM ([3]; Homo sapiens, 0.66 microM BM 13 177, 100 ng/ml U 46 619): 16% | inhibition at 0.66 µM ([4]; Homo sapiens, Platelet, 0.66 microM BM 13 177, 50 ng/ml U 46 619): 28% | IC50 ([4]; Platelet, BM 13 177, read-out: IC50 for the shape change): 1650 to 3300 nM | inhibition of collagen-induced thrombocytopenia ([5]; BM 13 177 0.5 mg/kg/min (lowest dosage), MW±SE): about 27±6% | platelet inhibition in vivo ([5]; BM 13 177 2 mg/kg i.v. infusion): 27% | inhibition of collagen-induced thrombocytopenia on raising the dosage (in words) ([5]; BM 13 177 1.0-2.0 mg/kg/min): cannot be increased by raising the dosage

CC#CCC(C)[C@H](O)/C=C/[C@@H]1[C@H]2C/C(=C/CCCC(=O)O)C[C@H]2C[C@H]1O (stereo partly shown) [Iloprost]
% Inhibition (2nd wave of aggregation) ([1]; 0.1 ng/ml Iloprost): no inhibition | IC50 ([1]; Iloprost): 0.26 to 0.65 nM | increase of thrombogenic ADP concentration (factor) ([2]; Iloprost 0.1 microgram/kg/min i.v. (threshold dose)): 2.8 | antithrombotic effect, Hb content of thrombi (in words) (jugular vein thrombosis; Iloprost 30 ng/kg/min i.v., individual dose): not significantly effective | reduction of diastolic blood pressure [6]: 20% | inhibition at 0.0001 µg/mL ([3]; Homo sapiens, 0.1 ng/ml Iloprost, 100 ng/ml U 46 619): 2% | IC50 ([3]; Iloprost, human PRP, stimulant U 46 619, read-out: IC50 for the aggregation inhibition): 1.3 to 2.6 nM | % Inhibition (shape change) ([4]; 0.1 ng/ml Iloprost, 50 ng/ml U 46 619): no inhibition | IC50 ([4]; Platelet, Iloprost, read-out: IC50 for the shape change inhibition): 0.52 to 1.3 nM | inhibition of collagen-induced thrombocytopenia (in words) ([5]; Iloprost 0.1-0.33-1.0 micrograms/kg/min): inhibits the collagen-induced thrombocytopenia, depending on the dose
